Legend:
wound repair = assay: Supplementation of individuals with DHEA, wound healing in the aged; type: in vivo
[1] = system: full thickness incisional wounds; assay: Incisional wound healing in OVX and sham rats, histology at day 7 post-wounding; type: in vivo, Female Sprague Dawley rats; set-up: key to NEW COLLAGEN / CELLS: + = little/few; ++++ = lots); key to EPITHELIALISATION: Y = epithelialised
Description: Female Sprague Dawley rats were housed together in three groups (1A, 1B and 1C) of nine to allow for synchronised oestrus cycling. Group 1A were ovariectomised (OVX) 18 days prior to wounding to allow circulating sex hormone levels to be eliminated. Group 1B (control) were untreated and Group 1C had the same operative procedure as the OVX (Group 1A), but without the removal of the ovaries, to ensure that the OVX operative procedure had no effect on the wounding studies (sham).
17 β-oestradiol (Sigma) was prepared as sterile 0.1% and 1% solutions in phosphate buffered saline (PBS) containing 0.1% and 1% 2-hydroxypropyl-β-cyclodextrin respectively, 2-hydroxypropyl-β-cyclodextrin is used in preparations as a carrier molecule to increase the water solubility of β-oestradiol. PBS/cyclodextrin was used as a vehicle control.
Animals from Groups 1A, 1B and 1C were given 4×1 cm length full thickness incisional wounds at 4.5-5.5 cm and 7.5-8.5 cm below the base of the skull, 1 cm either side of the midline. A single 100 μl intradermal injection was then given at each of the four wound sites. Each of the wounds (a total of 36 wounds on 9 rats in each group) received either 100 μl of oestradiol (0.1% or 1%), 100 μl of vehicle control (0.1% or 1% cyclodextrin) or was left unmanipulated (no injection).
The wounds were allowed to heal for 7 days after which the wounded tissue was excised for histological analysis.
7 μm paraffin-embedded sections were stained with H&E and Masson's Trichrome. The rate of re-epithelialisation (at day 7 post-wounding), and wound sizes as determined by planimetry, were determined with image analysis using an Olympus Vanox camera and PC image capture system. Collagen quantity within the wound was determined by two observers blinded to the identity of the specimen.

[2] = system: 4 mm punch biopsy wounds of the upper inner arm; assay: Topical oestrogen patch clinical trial of wound healing in elderly men and women; type: in vivo, human; conditions: patch applied to the wound for 24 hours post-wounding
Description: Approval for this study was given by the local Ethics Committee. Forty health-status defined volunteers split into four groups: (i) GROUP 3A comprised ten women with mean age 76.3 yr (Sd 5.6) who received oestrogen supplements (25 μg/24 hrs of oestradiol) (ii) GROUP 3B comprised ten women with mean age 72.5 yr (Sd 7.1) who received placebo instead of oestrogen. (iii) GROUP 3C comprised ten men with mean age 69.6 yr (Sd 3.6) who received oestrogen supplements (ii) GROUP 3D comprised ten men with mean age 71.8 yr (Sd 8.9) who received placebo instead of oestrogen. After informed consent subjects from each of Groups 3A, 3B, 3C and 3D underwent two 4 mm punch biopsies from the upper inner arm (a non sun-exposed site) following local infiltration with 1 ml 1% lignocaine. Each biopsy of normal skin was bisected and one-half embedded in Optimal Cutting Temperature compound (Miles Inc. Elkhart, Ind.), frozen over liquid nitrogen, and stored at −70° C., and one-half snap-frozen in liquid nitrogen and stored at −70° C. The area for biopsy was covered by a 2×3 cm patch (placebo Groups 3B and 3D or active oestradiol 3A and 3C) through which the biopsies were made. The patch was covered by a Multisorb dry gauze dressing (Smith & Nephew) and both were removed after 24 hrs. The active patches contained sufficient oestradiol such that the wound sites were exposed to 25 μg/24 hrs of oestradiol. Five subjects from Groups 3A, 3B, 3C and 3D underwent re-excision of the wounds at day 7 post-wounding, and the other five subjects from each group at day 84 post-wounding. The left upper inner arm was cleaned with isopropyl alcohol, elliptical excisions of the wounds were made following 1% lignocaine infiltration and two sutures were used to close the gap. Each wound was bisected and processed as described above (3.1.3). 7 μm paraffin-embedded sections were strained with H&E and Masson's Trichrome. The rate of re-epithelialisation (at day 7 post-wounding), and wound sizes as determined by planimetry, were determined with image analysis using an Olympus Vanox camera and PC image capture system. Collagen quantity within the wound was determined by two observers blinded to the identity of the specimen on the following scale +=minimal quantities; ++=less than normal skin; +++=similar to normal skin; ++++=greater than normal skin. The wound stiffness at day 80 was determined using the non-disruptive Dimensional Analysis System (Das). Previous studies have correlated wound breaking strength values (ultimate pressure at failure) to wound stiffness using this system. The system applies a multiaxial load (negative pressure) to the wound and measures the deformation due to the load of two reflective targets placed at the wound edges, using a high resolution camera and video processor. Pressure was applied to a maximum of 100 mmHg and then released, Stiffness was measured between 20 and 80 mmHg.

[3] = 0.1% oestradiol with 0.1% cyclodextrin vehicle, single 100 μl intradermal injection, OVX rats
[4] = 0.1% oestradiol with 0.1% cyclodextrin vehicle, single 100 μl intradermal injection, SHAM rats
[5] = 1% oestradiol with 1% cyclodextrin vehicle, single 100 μl intradermal injection, OVX rats
[6] = 1% oestradiol with 1% cyclodextrin vehicle, single 100 μl intradermal injection, SHAM rats

SMILES | rate of wound repair (wound repair) | CELLS [1, 3] | EPITHELIALISATION [1, 3] | NEW COLLAGEN [1, 3] | WOUND WIDTH [1, 3] | EPITHELIALISATION [1, 4] | WOUND WIDTH [1, 4] | EPITHELIALISATION [1, 5] | WOUND WIDTH [1, 5] | EPITHELIALISATION [1, 6] | WOUND WIDTH [1, 6] | rate of wound healing ([1]; 1% β-oestradiol, OVX group wounds, compared to control PBS treated and unmanipulated wounds) | rate of wound healing ([1]; single application of 0.1% β-oestradiol, OVX wounds, compared to control wounds) | rate at which the wound heals [2]
C[C@]12CC[C@H](O)CC1=CC[C@@H]1[C@@H]2CC[C@]2(C)C(=O)CC[C@@H]12 [DHEA, Dehydroepiandrosterone] | stimulating the rate of wound repair |  |  |  |  |  |  |  |  |  |  |  |  | 
C[C@]12CC[C@@H]3c4ccc(O)cc4CC[C@H]3[C@@H]1CC[C@@H]2O [OESTRADIOL, 17 β-oestradiol] |  | + | Y | ++++ | narrow | Y | narrow | Y | narrow | Y | wide | increased rate of wound healing | accelerated wound healing | sufficient to improve the rate at which the wound heals
